Assay results from BindingDB's records for doi:10.1016/j.bmcl.2009.05.071 (Astrazeneca, 2009).

Target: T1, Procathepsin L [114-333,T223A] (Homo sapiens, UniProt P07711, T223A)
T1 construct: 114-333
Experiment: Cathepsin Inhibition Assay
Conditions: pH 7; 37 °C
Description: IC50 values for inhibition of Cathepsins were determined from dose dependent inhibition of cleavage of fluorogenic, AMC-tagged, peptide substrates.

T1 sequence (P07711 114-333 T223A): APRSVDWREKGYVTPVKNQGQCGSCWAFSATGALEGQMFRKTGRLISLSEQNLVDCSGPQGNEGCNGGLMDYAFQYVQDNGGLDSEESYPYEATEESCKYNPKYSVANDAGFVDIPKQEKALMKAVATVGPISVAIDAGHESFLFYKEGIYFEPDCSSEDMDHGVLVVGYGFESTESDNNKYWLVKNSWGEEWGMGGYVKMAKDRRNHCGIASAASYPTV

| IC50 [nM] | SMILES |
| --- | --- |
| 251 | N#CCNC(=O)[C@H](Cc1cccc(Cl)c1)NC(=O)c1ccccc1 [Dipeptidyl nitrile inhibitor, 1] |
| 13 | Cn1nc(C(C)(C)C)cc1C(=O)N[C@@H](Cc1cccc(Cl)c1)C(=O)NCC#N [Dipeptidyl nitrile inhibitor, 25] |
